Reference: patent US10975116B2, “Methods of treating and preventing gastrointestinal motility disorders using aminosterols” (Enterin, Inc., priority 2013, dated 2021)
“And” between values parts separate entries of the source, which are not always exact repeats. Equal entries are not always repeated. “Also recorded” adds a separate entry of the source.

Columns and labels:
[1] = system: gastrointestinal tract; test: Aminosterol Induced GI Response after oral capsule in a human; assay type: in vivo
Method: Gelatin capsules were prepared for oral administration. Capsules were coated in shellac to prevent their release within the stomach. Furthermore, because squalamine and related aminosterols have antibiotic activity, enteric coating prevents the drug from altering the microbial populations of the stomach. […] Squalamine dilactate powder, 99% pure, or 1436 hydrochloride, 99% pure, was added manually into either Size 0 (for the 200 mg dose) or Size 1 (for the 100 mg dose) gelatin capsules. No excipient was added. The capsules were coated twice in 5% shellac (80% acetone/20% ethanol) and dried before use.
200 mg of squalamine (lactate salt, excipient free) in a coated gelatin capsule was administered orally to a human in the morning on an empty stomach, with water. Squalamine was synthesized as described in Zasloff et al 2011. Within 2 hours nausea was experienced, lasting about 30 minutes. At 2.5 hours, increased peristalsis (“rumbling gut”) was experienced, lasting several minutes. At about 3 hours, a clear watery discharge of about 200 ml was passed rectally. A second episode occurred at 3.2 hours. Following this episode, bowel sounds quieted. No nausea or discomfort was subsequently experienced. Appetite was near normal. Despite normal feeding, feces were not passed for 2.5 days over which time no discomfort was experienced. The first feces passed after this quiescent period was soft and relatively small considering the intake of food and the time interval. Usual bowel functions resumed by about 4 days after squalamine administration.
200 mg of 1436 (HCl salt, excipients free) in a gelatin capsule was administered orally to a human in the morning on an empty stomach, with water. […] At 2 hours, about 100 ml of clear watery diarrhea, recurring at 2.75 hours, 3 hours, 3.25 hours, and 4 hours, with progressively lesser volumes of liquid discharged. First bowel movement was passed at 3.5 days, of normal consistency. The subject experienced no abdominal discomfort, bloating, etc over this period. Usual bowel functions resumed by about 4.5 days after administration of Aminosterol 1436. […]
100 mg of squalamine was orally administered in a capsule as in the first example. […] A period of “bowel quiet” was induced, however, that lasted 2 days, after which normally formed feces were passed.

[2] = extensive studies in animals; cited from earlier work
[3] = system: appetite and body weight; settings: cited from earlier work
[4] = system: HIV; settings: tissue culture; cited from earlier work
[5] = single 200 mg oral capsule, morning, empty stomach, one human

Question: With `CC(C)[C@@H](CC[C@@H](C)[C@H]1CC[C@H]2[C@@H]3[C@H](O)C[C@H]4C[C@@H](NCCCNCCCCNCCCN)CC[C@]4(C)[C@H]3CC[C@]12C)OS(=O)(=O)O` [Aminosterol 1436] as the molecule, how does the “duration of the Aminosterol-Induced GI Response” value ([1]; following a single 200 mg oral dose) read?
Answer: about 4 days

Question: And the “first clear watery rectal discharge / diarrhea, time after dosing” value [1, 5]?
Answer: 2 h

Question: What about the “further episodes of watery discharge, time after dosing” value [1, 5] of the same molecule?
Answer: 2.75 h and 3 h and 3.25 h and 4 h

Question: And the “increased peristalsis, time after dosing” value [1, 5]?
Answer: ≤ 1 h

Question: And the “usual bowel functions resumed, time after administration” value [1, 5]?
Answer: about 4.5 days

Question: And the “volume of first clear watery discharge” value [1, 5]?
Answer: about 100 ml

Question: What about the “time without feces / to first bowel movement after dosing” value ([1]; single 200 mg oral capsule, morning, empty stomach, normal behavior about 1 passage every 24 hours) of the same molecule?
Answer: 3.5 days

Question: What about the “estimated reduction of small intestinal motility” value ([1]; single 200 mg oral dose, versus normal about 1 passage every 24 hours) of the same molecule?
Answer: 3.5 fold

Question: What about the “absorption from the gastrointestinal tract” value [2] of the same molecule?
Answer: neither squalamine nor Aminosterol 1436 can be absorbed to any extent

Question: And the “anorectic activity when administered orally” value ([3]; oral, dogs and rodents)?
Answer: no anorectic activity

Question: What about the “appetite and weight on parenteral administration” value ([3]; parenteral) of the same molecule?
Answer: potent appetite suppression and promotion of dose-dependent weight loss; also recorded: capable of inducing weight loss

Question: What about the antiviral activity [4] of the same molecule?
Answer: exhibits antiviral activity against HIV
